Test results published in the NIST ThermoML archive (doi:10.1021/acs.jced.8b00554).
Numbers after ± are expanded uncertainties.

Settings: Liquid, Vibrating tube method

CCCCCCCCC [nonane]
Settings | mass density [kg/m3]
313.15 K, 100 kPa | 701.49 ± 4.2
313.15 K, 1050 kPa | 702.34 ± 4.2
313.15 K, 2030 kPa | 703.25 ± 4.2
313.15 K, 3030 kPa | 704.17 ± 4.2
313.15 K, 4040 kPa | 705.07 ± 4.2
313.15 K, 5050 kPa | 705.96 ± 4.2
313.15 K, 5980 kPa | 706.78 ± 4.2
313.15 K, 7050 kPa | 707.7 ± 4.2
313.15 K, 8060 kPa | 708.56 ± 4.3
313.15 K, 9060 kPa | 709.4 ± 4.3
313.15 K, 10070 kPa | 710.23 ± 4.3
313.15 K, 11050 kPa | 710.92 ± 4.3
313.15 K, 12030 kPa | 711.71 ± 4.3
313.15 K, 13030 kPa | 712.51 ± 4.3
313.15 K, 14040 kPa | 713.3 ± 4.3
313.15 K, 15050 kPa | 714.09 ± 4.3
313.15 K, 15980 kPa | 714.8 ± 4.3
313.15 K, 17050 kPa | 715.61 ± 4.3
313.15 K, 18060 kPa | 716.36 ± 4.3
313.15 K, 19060 kPa | 717.1 ± 4.3
313.15 K, 20070 kPa | 717.83 ± 4.3
323.15 K, 100 kPa | 693.34 ± 4.2
323.15 K, 1030 kPa | 694.03 ± 4.2
323.15 K, 2040 kPa | 695.02 ± 4.2
323.15 K, 3030 kPa | 695.98 ± 4.2
323.15 K, 4040 kPa | 696.94 ± 4.2
323.15 K, 5040 kPa | 697.88 ± 4.2
323.15 K, 6040 kPa | 698.81 ± 4.2
323.15 K, 7050 kPa | 699.74 ± 4.2
323.15 K, 8060 kPa | 700.65 ± 4.2
323.15 K, 9060 kPa | 701.55 ± 4.2
323.15 K, 10060 kPa | 702.43 ± 4.2
323.15 K, 11030 kPa | 703.16 ± 4.2
323.15 K, 12040 kPa | 704.02 ± 4.2
323.15 K, 13030 kPa | 704.87 ± 4.2
323.15 K, 14040 kPa | 705.71 ± 4.2
323.15 K, 15040 kPa | 706.54 ± 4.2
323.15 K, 16040 kPa | 707.35 ± 4.2
323.15 K, 17050 kPa | 708.16 ± 4.3
323.15 K, 18060 kPa | 708.96 ± 4.3
323.15 K, 19060 kPa | 709.74 ± 4.3
323.15 K, 20060 kPa | 710.52 ± 4.3
333.15 K, 100 kPa | 685.03 ± 4.1
333.15 K, 1030 kPa | 685.98 ± 4.1
333.15 K, 2020 kPa | 687 ± 4.1
333.15 K, 3020 kPa | 688.03 ± 4.1
333.15 K, 4020 kPa | 689.05 ± 4.1
333.15 K, 5030 kPa | 690.05 ± 4.2
333.15 K, 6030 kPa | 691.03 ± 4.2
333.15 K, 7030 kPa | 692 ± 4.2
333.15 K, 8040 kPa | 692.97 ± 4.2
333.15 K, 9040 kPa | 693.91 ± 4.2
333.15 K, 10050 kPa | 694.85 ± 4.2
333.15 K, 11030 kPa | 695.64 ± 4.2
333.15 K, 12020 kPa | 696.54 ± 4.2
333.15 K, 13020 kPa | 697.44 ± 4.2
333.15 K, 14020 kPa | 698.32 ± 4.2
333.15 K, 15030 kPa | 699.2 ± 4.2
333.15 K, 16030 kPa | 700.06 ± 4.2
333.15 K, 17030 kPa | 700.91 ± 4.2
333.15 K, 18040 kPa | 701.76 ± 4.2
333.15 K, 19040 kPa | 702.59 ± 4.2
333.15 K, 20050 kPa | 703.42 ± 4.2
343.15 K, 100 kPa | 677.18 ± 4.1
343.15 K, 1000 kPa | 678.15 ± 4.1
343.15 K, 2010 kPa | 679.25 ± 4.1
343.15 K, 3010 kPa | 680.33 ± 4.1
343.15 K, 4020 kPa | 681.41 ± 4.1
343.15 K, 5030 kPa | 682.46 ± 4.1
343.15 K, 6030 kPa | 683.5 ± 4.1
343.15 K, 7040 kPa | 684.52 ± 4.1
343.15 K, 8040 kPa | 685.53 ± 4.1
343.15 K, 9050 kPa | 686.53 ± 4.1
343.15 K, 10050 kPa | 687.51 ± 4.1
343.15 K, 11000 kPa | 688.33 ± 4.1
343.15 K, 12010 kPa | 689.29 ± 4.1
343.15 K, 13010 kPa | 690.24 ± 4.2
343.15 K, 14020 kPa | 691.18 ± 4.2
343.15 K, 15030 kPa | 692.1 ± 4.2
343.15 K, 16030 kPa | 693.01 ± 4.2
343.15 K, 17040 kPa | 693.91 ± 4.2
343.15 K, 18040 kPa | 694.8 ± 4.2
343.15 K, 19050 kPa | 695.68 ± 4.2
343.15 K, 20050 kPa | 696.54 ± 4.2
353.15 K, 100 kPa | 669.55 ± 4
353.15 K, 1000 kPa | 670.57 ± 4
353.15 K, 2000 kPa | 671.72 ± 4
353.15 K, 3010 kPa | 672.85 ± 4
353.15 K, 4010 kPa | 673.98 ± 4
353.15 K, 5020 kPa | 675.08 ± 4.1
353.15 K, 6020 kPa | 676.17 ± 4.1
353.15 K, 7020 kPa | 677.25 ± 4.1
353.15 K, 8030 kPa | 678.31 ± 4.1
353.15 K, 9030 kPa | 679.35 ± 4.1
353.15 K, 10040 kPa | 680.39 ± 4.1
353.15 K, 11000 kPa | 681.26 ± 4.1
353.15 K, 12000 kPa | 682.26 ± 4.1
353.15 K, 13010 kPa | 683.26 ± 4.1
353.15 K, 14010 kPa | 684.23 ± 4.1
353.15 K, 15020 kPa | 685.21 ± 4.1
353.15 K, 16020 kPa | 686.16 ± 4.1
353.15 K, 17020 kPa | 687.1 ± 4.1
353.15 K, 18030 kPa | 688.03 ± 4.1
353.15 K, 19030 kPa | 688.95 ± 4.2
353.15 K, 20040 kPa | 689.86 ± 4.2
363.15 K, 100 kPa | 662.05 ± 4
363.15 K, 990 kPa | 663.2 ± 4
363.15 K, 2000 kPa | 664.41 ± 4
363.15 K, 3010 kPa | 665.6 ± 4
363.15 K, 4010 kPa | 666.77 ± 4
363.15 K, 5020 kPa | 667.93 ± 4
363.15 K, 6020 kPa | 669.07 ± 4
363.15 K, 7030 kPa | 670.19 ± 4
363.15 K, 8030 kPa | 671.3 ± 4
363.15 K, 9040 kPa | 672.4 ± 4
363.15 K, 10040 kPa | 673.47 ± 4
363.15 K, 10990 kPa | 674.38 ± 4.1
363.15 K, 12000 kPa | 675.44 ± 4.1
363.15 K, 13010 kPa | 676.48 ± 4.1
363.15 K, 14010 kPa | 677.5 ± 4.1
363.15 K, 15020 kPa | 678.52 ± 4.1
363.15 K, 16020 kPa | 679.51 ± 4.1
363.15 K, 17030 kPa | 680.5 ± 4.1
363.15 K, 18030 kPa | 681.47 ± 4.1
363.15 K, 19040 kPa | 682.43 ± 4.1
363.15 K, 20040 kPa | 683.38 ± 4.1
